Reference: ChEMBL document CHEMBL1201862, “PubChem BioAssay data set” (2004)
Activity calls are given as the source filed them.

Tests used:
[1] = target: Induced myeloid leukemia cell differentiation protein Mcl-1 (Homo sapiens, UniProt Q07820); assay type: functional
[2] = target: T1, Hexokinase HKDC1 (Homo sapiens, UniProt Q2TB90); test: inhibition of HKDC1 glucose phosphorylation – biochemical, W721R variant, dose response (AID 504729); assay type: functional
T1 sequence (Q2TB90 whole entry): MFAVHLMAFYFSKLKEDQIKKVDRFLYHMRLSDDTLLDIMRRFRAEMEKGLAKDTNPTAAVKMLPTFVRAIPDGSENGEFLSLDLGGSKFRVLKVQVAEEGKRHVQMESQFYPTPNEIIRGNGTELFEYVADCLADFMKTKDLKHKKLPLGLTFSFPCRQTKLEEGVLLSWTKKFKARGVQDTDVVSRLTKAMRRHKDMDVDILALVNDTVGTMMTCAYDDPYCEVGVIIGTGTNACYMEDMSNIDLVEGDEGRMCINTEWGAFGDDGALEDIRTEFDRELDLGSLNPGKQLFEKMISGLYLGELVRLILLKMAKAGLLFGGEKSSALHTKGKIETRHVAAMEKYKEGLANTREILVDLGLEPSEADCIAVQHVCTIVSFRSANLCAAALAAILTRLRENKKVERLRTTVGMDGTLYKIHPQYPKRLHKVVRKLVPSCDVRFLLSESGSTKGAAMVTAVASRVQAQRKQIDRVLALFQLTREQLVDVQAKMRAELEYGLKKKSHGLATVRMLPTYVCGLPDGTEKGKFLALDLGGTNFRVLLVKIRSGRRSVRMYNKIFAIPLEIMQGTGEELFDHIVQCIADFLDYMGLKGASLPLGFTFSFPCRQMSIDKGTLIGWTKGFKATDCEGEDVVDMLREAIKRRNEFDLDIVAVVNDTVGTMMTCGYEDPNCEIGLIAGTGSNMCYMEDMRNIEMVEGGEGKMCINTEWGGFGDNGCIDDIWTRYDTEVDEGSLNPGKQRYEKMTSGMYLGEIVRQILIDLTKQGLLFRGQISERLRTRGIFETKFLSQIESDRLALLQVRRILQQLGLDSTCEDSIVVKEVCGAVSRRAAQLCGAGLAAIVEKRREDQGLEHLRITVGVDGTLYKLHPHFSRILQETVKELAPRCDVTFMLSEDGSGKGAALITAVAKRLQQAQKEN

[3] = target: T2, Heat shock factor protein 1 (Mus musculus, UniProt P38532); test: decrease of HSF1-responsive luciferase luminescence – cell-based, NIH3T3, dose retest, confirmation (AID 2382); assay type: functional;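 also: NIH3T3 fibroblasts with HSF1-driven luciferase reporter stressed by proteasome inhibitor MG132; luminescence from HSF1-driven luciferase expression after 8 hours of MG132 stress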
T2 sequence (P38532 whole entry): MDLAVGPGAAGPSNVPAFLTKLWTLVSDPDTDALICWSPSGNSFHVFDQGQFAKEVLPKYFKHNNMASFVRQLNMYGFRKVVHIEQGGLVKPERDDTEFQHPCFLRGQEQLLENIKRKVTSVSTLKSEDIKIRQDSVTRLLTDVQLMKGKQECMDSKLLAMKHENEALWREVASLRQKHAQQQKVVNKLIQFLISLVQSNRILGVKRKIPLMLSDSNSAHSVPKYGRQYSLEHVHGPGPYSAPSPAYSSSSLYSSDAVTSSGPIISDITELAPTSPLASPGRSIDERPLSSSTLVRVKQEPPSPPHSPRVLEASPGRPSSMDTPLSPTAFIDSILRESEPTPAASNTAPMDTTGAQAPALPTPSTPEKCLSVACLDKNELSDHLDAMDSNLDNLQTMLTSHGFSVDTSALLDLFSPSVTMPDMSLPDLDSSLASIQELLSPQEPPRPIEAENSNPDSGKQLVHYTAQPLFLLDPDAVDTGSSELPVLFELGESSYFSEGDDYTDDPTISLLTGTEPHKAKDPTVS

[4] = system: H9c2; test: cells; assay type: functional, cell-based; conditions: Rattus norvegicus, H9c2, Myocardium;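 also: confirmatory concentration-response retest of ultra-high-throughput screening hits for modulation of myocardial damage; cell death induced by hydrogen peroxide oxidative stress; compound pretreatment for 60 min then peroxide exposure for 2 h; potency is for protecting the cells against peroxide damage rather than for killing them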
[5] = target: T3, Estrogen receptor beta (Homo sapiens, UniProt Q92731);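 also: recombinant ER-beta bound to coactivator SRC1 peptide in presence of estradiol agonist; inhibitors block coactivator peptide binding and lower the FRET signal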
T3 sequence (Q92731 whole entry): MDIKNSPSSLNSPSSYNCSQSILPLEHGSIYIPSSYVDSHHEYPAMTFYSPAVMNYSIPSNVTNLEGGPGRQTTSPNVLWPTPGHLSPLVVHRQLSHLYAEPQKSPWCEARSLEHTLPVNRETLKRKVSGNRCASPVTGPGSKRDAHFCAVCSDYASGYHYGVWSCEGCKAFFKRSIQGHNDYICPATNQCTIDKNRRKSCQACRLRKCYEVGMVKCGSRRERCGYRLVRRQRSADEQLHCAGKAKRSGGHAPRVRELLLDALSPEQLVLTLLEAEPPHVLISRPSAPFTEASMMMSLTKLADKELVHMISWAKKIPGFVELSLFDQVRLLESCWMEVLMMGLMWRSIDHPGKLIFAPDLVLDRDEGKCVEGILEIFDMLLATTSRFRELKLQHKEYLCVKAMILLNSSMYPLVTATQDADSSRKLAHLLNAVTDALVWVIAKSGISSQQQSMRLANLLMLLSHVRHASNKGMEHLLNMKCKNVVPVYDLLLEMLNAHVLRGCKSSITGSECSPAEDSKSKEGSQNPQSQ

[6] = target: T4, Bcl-2-like protein 10 (Homo sapiens, UniProt Q9HD36); test: Bcl-B/TR3 peptide binding disruption – biochemical, fluorescence polarization, FITC-TR3 peptide, selectivity assay for Bfl-1 inhibitor project, primary screen (AID 748);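 also: fluorescence polarization from a fluorescein-labelled TR3 peptide binding purified Bcl-B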
T4 sequence (Q9HD36 whole entry): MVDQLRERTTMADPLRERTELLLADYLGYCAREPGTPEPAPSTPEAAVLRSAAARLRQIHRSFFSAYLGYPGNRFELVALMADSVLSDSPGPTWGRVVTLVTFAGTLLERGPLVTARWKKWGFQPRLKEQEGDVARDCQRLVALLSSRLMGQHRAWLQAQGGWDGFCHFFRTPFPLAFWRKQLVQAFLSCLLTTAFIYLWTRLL

[7] = target: Ras and Rab interactor 1/Tyrosine-protein kinase ABL1 (Homo sapiens, UniProt P00519+Q13671); assay type: functional;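 also: biochemical TR-FRET dose-response test measuring inhibition of binding between Rin1 and Abl proteins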
[8] = target: T3, Estrogen receptor beta; test: blockers of SRC-3 recruitment to ERβ – biochemical, ELISA, streptavidin-HRP readout, orthogonal assay, confirmation (AID 1060)
[9] = target: T5, Carboxy-terminal domain RNA polymerase II polypeptide A small phosphatase 1 (Homo sapiens, UniProt Q9GZU7); test: CTDSP1 inhibitors, concentration-response, biochemical, absorbance readout, ultra-high-throughput screen actives (AID 540297); assay type: functional
T5 sequence (Q9GZU7 whole entry): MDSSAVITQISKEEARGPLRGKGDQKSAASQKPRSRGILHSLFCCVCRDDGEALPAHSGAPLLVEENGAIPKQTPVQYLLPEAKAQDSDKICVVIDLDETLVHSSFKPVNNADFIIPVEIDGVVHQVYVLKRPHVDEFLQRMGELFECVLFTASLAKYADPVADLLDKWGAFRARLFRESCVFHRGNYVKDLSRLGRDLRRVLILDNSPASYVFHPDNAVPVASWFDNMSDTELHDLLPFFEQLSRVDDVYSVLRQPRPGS

[10] = system: BJ; test: cells; assay type: functional, cell-based; conditions: Homo sapiens
[11] = target: T2, Heat shock factor protein 1; test: enhancement of HSF1-driven luciferase signal – cell-based, NIH3T3, luminescence, dose retest, confirmation (AID 435004); assay type: functional;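 also: stress induced by proteasome inhibitor MG132 added 30 min after compound; luciferase reporter driven by HSF1 response element in NIH3T3 cells; actives raise luminescence as potentiators of the MG132 stress response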
[12] = system: BJ; test: BJ-TERT fibroblast viability loss – cell-based, RAS-independent, luminescence, dose response (AID 1933); assay type: functional; conditions: Homo sapiens
[13] = DRD fibroblast viability loss – cell-based, non-viral oncogenic, luminescence, dose response (AID 1934); assay type: functional; conditions: Homo sapiens
[14] = system: BJ; test: BJ-TERT-LT-ST fibroblast viability loss – cell-based, RAS-independent, luminescence, dose response (AID 1935); assay type: functional; conditions: Homo sapiens;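 also: BJ fibroblasts immortalized with TERT plus LT and ST oncogenes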
[15] = target: T6, Voltage-gated N-type calcium channel alpha-1B subunit/Amyloid beta A4 precursor protein-binding family A member 1 (Homo sapiens, UniProt Q00975+Q02410); assay type: protein assay
T6 sequence (Q00975 whole entry): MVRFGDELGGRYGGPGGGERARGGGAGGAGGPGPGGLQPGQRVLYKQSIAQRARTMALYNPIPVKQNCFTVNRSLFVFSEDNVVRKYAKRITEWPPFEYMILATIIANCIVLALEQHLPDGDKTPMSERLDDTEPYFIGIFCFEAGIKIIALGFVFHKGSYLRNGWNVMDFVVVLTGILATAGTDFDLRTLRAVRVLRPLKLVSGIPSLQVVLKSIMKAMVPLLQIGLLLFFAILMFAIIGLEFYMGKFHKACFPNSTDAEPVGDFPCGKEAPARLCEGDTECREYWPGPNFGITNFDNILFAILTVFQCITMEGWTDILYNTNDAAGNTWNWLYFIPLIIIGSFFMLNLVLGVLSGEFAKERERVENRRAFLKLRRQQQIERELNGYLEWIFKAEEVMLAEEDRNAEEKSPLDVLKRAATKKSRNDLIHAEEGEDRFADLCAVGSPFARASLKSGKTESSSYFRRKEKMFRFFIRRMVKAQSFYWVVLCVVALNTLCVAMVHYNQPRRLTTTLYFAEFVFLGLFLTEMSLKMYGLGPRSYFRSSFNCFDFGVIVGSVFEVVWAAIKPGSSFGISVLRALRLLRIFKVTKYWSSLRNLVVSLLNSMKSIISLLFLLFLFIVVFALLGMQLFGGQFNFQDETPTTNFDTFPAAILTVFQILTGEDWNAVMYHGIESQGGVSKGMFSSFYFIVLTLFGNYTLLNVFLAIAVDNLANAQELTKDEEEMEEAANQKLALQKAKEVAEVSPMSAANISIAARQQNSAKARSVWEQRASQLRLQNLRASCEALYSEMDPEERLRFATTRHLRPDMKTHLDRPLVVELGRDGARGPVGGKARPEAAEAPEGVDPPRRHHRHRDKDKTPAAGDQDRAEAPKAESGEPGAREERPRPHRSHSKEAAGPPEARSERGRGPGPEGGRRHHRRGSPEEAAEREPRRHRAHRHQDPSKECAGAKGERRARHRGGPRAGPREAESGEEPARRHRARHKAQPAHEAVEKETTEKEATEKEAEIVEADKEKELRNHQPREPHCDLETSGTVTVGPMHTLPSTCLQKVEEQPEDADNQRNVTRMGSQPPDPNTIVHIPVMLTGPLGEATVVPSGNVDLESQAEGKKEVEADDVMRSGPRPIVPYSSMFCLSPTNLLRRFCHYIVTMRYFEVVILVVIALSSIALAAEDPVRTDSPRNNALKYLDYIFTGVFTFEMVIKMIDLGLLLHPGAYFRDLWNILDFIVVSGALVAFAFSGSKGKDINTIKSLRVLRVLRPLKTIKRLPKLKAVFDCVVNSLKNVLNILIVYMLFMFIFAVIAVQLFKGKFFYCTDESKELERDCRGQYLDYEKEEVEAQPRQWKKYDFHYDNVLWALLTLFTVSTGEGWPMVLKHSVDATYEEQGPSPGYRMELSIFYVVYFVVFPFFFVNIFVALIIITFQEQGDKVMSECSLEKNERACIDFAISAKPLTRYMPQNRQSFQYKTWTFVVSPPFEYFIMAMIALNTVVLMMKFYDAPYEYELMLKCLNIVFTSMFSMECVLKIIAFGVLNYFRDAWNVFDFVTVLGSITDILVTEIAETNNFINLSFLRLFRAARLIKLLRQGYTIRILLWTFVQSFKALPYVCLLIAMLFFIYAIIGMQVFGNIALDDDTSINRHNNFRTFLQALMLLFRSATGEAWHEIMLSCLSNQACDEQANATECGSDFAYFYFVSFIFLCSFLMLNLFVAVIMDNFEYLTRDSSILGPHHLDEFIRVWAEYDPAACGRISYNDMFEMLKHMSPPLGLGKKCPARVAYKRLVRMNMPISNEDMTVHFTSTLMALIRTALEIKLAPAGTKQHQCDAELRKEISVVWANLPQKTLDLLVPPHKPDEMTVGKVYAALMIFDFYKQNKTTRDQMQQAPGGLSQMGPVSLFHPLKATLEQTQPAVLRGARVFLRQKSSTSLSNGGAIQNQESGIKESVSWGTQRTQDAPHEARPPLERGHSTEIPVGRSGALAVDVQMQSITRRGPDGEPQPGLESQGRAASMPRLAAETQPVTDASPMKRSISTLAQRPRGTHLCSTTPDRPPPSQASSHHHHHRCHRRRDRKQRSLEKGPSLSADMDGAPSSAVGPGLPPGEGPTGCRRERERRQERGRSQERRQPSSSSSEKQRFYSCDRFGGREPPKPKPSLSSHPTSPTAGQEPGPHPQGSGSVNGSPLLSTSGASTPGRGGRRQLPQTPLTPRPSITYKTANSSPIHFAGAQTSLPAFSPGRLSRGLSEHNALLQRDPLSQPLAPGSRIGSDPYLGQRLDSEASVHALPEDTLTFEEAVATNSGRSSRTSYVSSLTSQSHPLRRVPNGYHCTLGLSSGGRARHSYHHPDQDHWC
T6 sequence (Q02410 whole entry): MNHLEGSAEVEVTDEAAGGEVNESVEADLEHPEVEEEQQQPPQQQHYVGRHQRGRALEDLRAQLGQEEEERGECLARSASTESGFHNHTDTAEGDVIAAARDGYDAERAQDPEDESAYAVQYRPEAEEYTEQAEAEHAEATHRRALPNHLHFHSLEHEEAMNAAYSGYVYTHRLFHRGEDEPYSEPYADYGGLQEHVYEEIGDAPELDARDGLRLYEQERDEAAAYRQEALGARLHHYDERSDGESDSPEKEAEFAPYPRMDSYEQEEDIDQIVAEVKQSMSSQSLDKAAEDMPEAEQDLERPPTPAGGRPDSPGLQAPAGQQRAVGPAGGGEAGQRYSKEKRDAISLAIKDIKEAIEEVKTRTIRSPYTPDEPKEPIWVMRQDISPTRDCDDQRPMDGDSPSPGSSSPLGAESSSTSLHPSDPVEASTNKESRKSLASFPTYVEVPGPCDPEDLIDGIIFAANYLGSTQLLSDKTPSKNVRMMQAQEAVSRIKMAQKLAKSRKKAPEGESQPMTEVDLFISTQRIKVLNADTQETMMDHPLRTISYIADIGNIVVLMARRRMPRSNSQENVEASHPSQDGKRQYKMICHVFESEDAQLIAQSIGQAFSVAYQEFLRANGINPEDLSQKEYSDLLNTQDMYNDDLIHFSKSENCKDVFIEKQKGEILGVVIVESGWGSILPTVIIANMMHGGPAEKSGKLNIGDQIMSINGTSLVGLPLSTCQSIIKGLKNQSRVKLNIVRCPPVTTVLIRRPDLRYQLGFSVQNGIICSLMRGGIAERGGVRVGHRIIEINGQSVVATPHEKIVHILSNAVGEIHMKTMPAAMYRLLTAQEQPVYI

[16] = target: T6, Voltage-gated N-type calcium channel alpha-1B subunit/Amyloid beta A4 precursor protein-binding family A member 1; assay type: protein assay; remark: listed apart in the source
[17] = target: T7, Estrogen receptor (Homo sapiens, UniProt P03372);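 also: potency for inhibiting coactivator peptide recruitment to the receptor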
T7 sequence (P03372 whole entry): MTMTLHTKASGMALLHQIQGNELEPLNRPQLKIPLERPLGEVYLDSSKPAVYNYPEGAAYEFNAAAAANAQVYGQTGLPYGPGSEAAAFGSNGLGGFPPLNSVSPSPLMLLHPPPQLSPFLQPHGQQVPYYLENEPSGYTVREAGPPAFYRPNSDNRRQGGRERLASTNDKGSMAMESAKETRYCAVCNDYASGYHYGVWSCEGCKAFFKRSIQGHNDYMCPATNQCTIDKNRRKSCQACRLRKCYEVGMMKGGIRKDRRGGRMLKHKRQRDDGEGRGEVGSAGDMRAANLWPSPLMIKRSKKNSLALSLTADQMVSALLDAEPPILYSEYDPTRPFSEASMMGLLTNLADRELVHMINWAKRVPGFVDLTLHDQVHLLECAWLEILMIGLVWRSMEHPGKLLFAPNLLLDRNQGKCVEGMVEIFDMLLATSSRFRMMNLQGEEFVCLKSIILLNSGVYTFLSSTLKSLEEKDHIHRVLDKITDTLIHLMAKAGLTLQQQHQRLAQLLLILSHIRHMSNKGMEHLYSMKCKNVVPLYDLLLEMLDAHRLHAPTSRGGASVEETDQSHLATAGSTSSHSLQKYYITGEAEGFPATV

Sequence of Induced myeloid leukemia cell differentiation protein Mcl-1 (Q07820 whole entry): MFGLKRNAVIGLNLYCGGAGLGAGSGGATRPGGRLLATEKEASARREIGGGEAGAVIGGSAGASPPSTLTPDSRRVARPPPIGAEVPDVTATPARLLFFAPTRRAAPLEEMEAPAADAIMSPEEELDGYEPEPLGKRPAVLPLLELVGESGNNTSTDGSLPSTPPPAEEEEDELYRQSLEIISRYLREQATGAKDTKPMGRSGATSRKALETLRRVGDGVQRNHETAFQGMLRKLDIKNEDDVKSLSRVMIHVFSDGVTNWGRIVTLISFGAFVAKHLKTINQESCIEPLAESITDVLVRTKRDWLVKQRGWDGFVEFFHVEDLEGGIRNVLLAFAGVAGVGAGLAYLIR

SMILES: CCn1cc(C(=O)NCc2ccc3c(c2)OCO3)c2cc(OC)c(OC)cc2c1=O
- IC50 [1]: 7.31 µM (not active)
- IC50 [2]: 17.2 µM (active)

SMILES: CCOc1ccccc1Nc1nnc(SCc2nnc(-c3cc(OC)c(OC)c(OC)c3)o2)s1
- EC50 [3]: 21.7 µM (active)
- IC50 [4]: > 79 µM (inactive)
- IC50 [2]: 18.8 µM (active)

SMILES: Cc1ccc(-n2c(SCc3cc(=O)n4ccsc4n3)nnc2-c2cccnc2)c(C)c1
- IC50 [5]: > 50 µM (not active)
- IC50 [6]: > 100 µM (inactive)
- IC50 [7]: 19.6 µM (inactive)
- IC50 [8]: 0.721 µM (not active)

SMILES: O=C(c1cc2c(s1)CCC2)N1CCN(c2ccccc2)CC1
- IC50 [5]: 3.87 µM (active)
- IC50 [6]: 36.3 µM (active)
- IC50 [8]: > 50 µM (not active)
- IC50 [9]: 22.4 µM (active)

SMILES: Cc1c(C(=O)OCC2CCCO2)[nH]c2c1C(=O)CC(c1ccco1)C2 (configuration not stated)
- EC50 [10]: 36.9 µM (active)
- EC50 [11]: > 260 µM (inactive)
- EC50 [12]: 12.2 µM (active)
- EC50 [13]: 21.8 µM (active)
- EC50 [14]: 23.6 µM (active)
- IC50 [15]: 21.9 µM (active)
- IC50 [16]: > 50 µM (inactive)
- IC50 [6]: 23.8 µM (active)
- IC50 [17]: 32.1 µM (not active)
